Source: EP4707277A1, “NOVEL HETEROCYCLIC AMINE DERIVATIVES AND PHARMACEUTICAL COMPOSITION COMPRISING SAME” (Daewoong Pharmaceutical Co., Ltd., priority 2023, dated 2024)

Experiments:
ITK = biological target: T1, ITK (Homo sapiens, UniProt Q08881); assay: Inhibitory activity against ITK, ADP-Glo Kinase system (Promega); format: biochemical; details: 1mM ATP; read-out: ITK IC50(nM) 1mM ATP
T1 construct: purchased Signalchem I13-11G-10
T1 sequence (Q08881 1-620): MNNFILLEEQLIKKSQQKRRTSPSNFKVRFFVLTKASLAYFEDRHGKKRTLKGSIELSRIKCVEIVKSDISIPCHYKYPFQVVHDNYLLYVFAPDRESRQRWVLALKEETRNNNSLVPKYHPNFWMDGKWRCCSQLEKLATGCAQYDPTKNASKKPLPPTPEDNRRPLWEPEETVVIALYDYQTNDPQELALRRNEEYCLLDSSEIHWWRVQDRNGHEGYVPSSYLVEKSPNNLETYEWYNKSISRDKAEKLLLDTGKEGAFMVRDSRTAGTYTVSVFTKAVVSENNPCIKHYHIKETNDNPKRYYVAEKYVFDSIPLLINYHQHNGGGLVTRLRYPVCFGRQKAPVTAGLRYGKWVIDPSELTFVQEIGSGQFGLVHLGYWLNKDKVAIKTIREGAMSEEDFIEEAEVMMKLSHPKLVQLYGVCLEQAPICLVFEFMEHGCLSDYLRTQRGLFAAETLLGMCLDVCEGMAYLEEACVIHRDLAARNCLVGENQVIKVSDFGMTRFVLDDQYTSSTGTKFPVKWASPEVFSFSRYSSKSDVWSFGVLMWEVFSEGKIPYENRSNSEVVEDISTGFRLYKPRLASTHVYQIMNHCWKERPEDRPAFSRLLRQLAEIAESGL
Method in brief: (§1)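 IC50 values were fitted from kinase reactions run for 1 h at 30°C with either 1 mM ATP or ATP at Km (10 µM for BTK, 25 µM for ITK). Reactions used 0.2 µg/µl poly(Glu4,Tyr1), recombinant human enzyme (BTK 10 ng, ITK 4 ng per reaction) in Tris pH 7.5 Mn/Mg buffer with 1% DMSO. ADP formed was read by ADP-Glo luminescence.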

BTK = biological target: T2, BTK (Homo sapiens, UniProt Q06187); assay: Inhibitory activity against BTK, ADP-Glo Kinase system (Promega); format: biochemical; details: 1mM ATP; read-out: BTK IC50(nM) 1mM ATP
T2 construct: purchased Signalchem B10-10H
Method in brief: as §1

T2 sequence (Q06187 whole entry): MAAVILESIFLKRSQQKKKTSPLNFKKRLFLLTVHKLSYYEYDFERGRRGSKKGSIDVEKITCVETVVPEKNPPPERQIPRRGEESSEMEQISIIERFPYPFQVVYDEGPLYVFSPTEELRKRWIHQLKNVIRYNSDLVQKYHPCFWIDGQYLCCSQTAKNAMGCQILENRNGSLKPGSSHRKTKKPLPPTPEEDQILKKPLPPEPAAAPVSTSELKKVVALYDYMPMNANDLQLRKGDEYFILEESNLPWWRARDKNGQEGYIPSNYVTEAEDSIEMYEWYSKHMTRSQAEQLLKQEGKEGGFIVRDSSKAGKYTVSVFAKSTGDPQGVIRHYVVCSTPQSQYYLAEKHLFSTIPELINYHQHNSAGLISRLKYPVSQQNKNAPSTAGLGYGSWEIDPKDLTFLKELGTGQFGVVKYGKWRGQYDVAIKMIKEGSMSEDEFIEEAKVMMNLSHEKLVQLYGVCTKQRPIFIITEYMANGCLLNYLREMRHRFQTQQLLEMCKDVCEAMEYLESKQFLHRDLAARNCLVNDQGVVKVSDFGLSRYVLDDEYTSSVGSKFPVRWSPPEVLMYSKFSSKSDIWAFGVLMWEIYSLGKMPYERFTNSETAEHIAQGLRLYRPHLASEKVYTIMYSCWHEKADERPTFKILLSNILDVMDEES

| IC50 (ITK) | IC50 (BTK) | SMILES |
| --- | --- | --- |
| ≤ 20 nM | ≤ 20 nM | C=CC(=O)N1C[C@@H](Oc2nc(Nc3ncc(C)s3)cc3c2ccn3CC)C[C@@H]1C [Example 186, 1-((2S,4S)-4-((1-ethyl-6-((5-methylthiazol-2-yl)amino)-1H-pyrrolo[3,2-c]pyridin-4-yl)oxy)-2-methylpyrrolidin-1-yl)prop-2-en-1-one] |
| ≤ 20 nM | ≤ 20 nM | C=CC(=O)N1C[C@@H](Oc2nc(Nc3ncc(C)s3)cc3c2ccn3CCC)C[C@@H]1C [Example 187, 1-((2S,4S)-2-methyl-4-((6-((5-methylthiazol-2-yl)amino)-1-propyl-1H-pyrrolo[3,2-c]pyridin-4-yl)oxy)pyrrolidin-1-yl)prop-2-en-1-one] |
| ≤ 20 nM | ≤ 20 nM | C=CC(=O)N1CC[C@H](Oc2nc(Nc3ncc(C)s3)cc3c2ccn3CCF)C1 [Example 188, (S)-1-(3-((1-(2-fluoroethyl)-6-((5-methylthiazol-2-yl)amino)-1H-pyrrolo[3,2-c]pyridin-4-yl)oxy)pyrrolidin-1-yl)prop-2-en-1-one] |
| ≤ 20 nM | ≤ 20 nM | C=CC(=O)N1C[C@H](F)[C@H](Oc2nc(Nc3ncc(C)s3)cc3c2ccn3CCF)C1 [Example 189, 1-((3S,4R)-3-fluoro-4-((1-(2-fluoroethyl)-6-((5-methylthiazol-2-yl)amino)-1H-pyrrolo[3,2-c]pyridin-4-yl)oxy)pyrrolidin-1-yl)prop-2-en-1-one] |
| ≤ 20 nM | ≤ 20 nM | C=CC(=O)N1CC[C@H](Oc2nc(Nc3ncc(C)s3)cc3c2ccn3CCCF)C1 [Example 190, (S)-1-(3-((1-(3-fluoropropyl)-6-((5-methylthiazol-2-yl)amino)-1H-pyrrolo[3,2-c]pyridin-4-yl)oxy)pyrrolidin-1-yl)prop-2-en-1-one] |
| ≤ 20 nM | ≤ 20 nM | C=CC(=O)N1C[C@H](F)[C@H](Oc2nc(Nc3ncc(C)s3)cc3c2ccn3CCCF)C1 [Example 191, 1-((3S,4R)-3-fluoro-4-((1-(3-fluoropropyl)-6-((5-methylthiazol-2-yl)amino)-1H-pyrrolo[3,2-c]pyridin-4-yl)oxy)pyrrolidin-1-yl)prop-2-en-1-one] |
| ≤ 20 nM | ≤ 20 nM | C=CC(=O)N1CC[C@H](Oc2nc(Nc3ncc(C)s3)cc3c2ccn3CC(F)(F)F)C1 [Example 205, (S)-1-(3-((6-((5-methylthiazol-2-yl)amino)-1-(2,2,2-trifluoroethyl)-1H-pyrrolo[3,2-c]pyridin-4-yl)oxy)pyrrolidin-1-yl)prop-2-en-1-one] |
| ≤ 20 nM | ≤ 20 nM | C=CC(=O)N1CC[C@H](Oc2nc(Nc3ncc(C)s3)cc3c2ccn3CC(F)F)C1 [Example 206, (S)-1-(3-((1-(2,2-difluoroethyl)-6-((5-methylthiazol-2-yl)amino)-1H-pyrrolo[3,2-c]pyridin-4-yl)oxy)pyrrolidin-1-yl)prop-2-en-1-one] |

Second part, the compound before the results:

| SMILES | IC50 (ITK) | IC50 (BTK) |
| --- | --- | --- |
| C=CC(=O)N1CC[C@H](Oc2nc(Nc3cc[nH]n3)cc3c2ccn3C(C)C)C1 [Example 192, (S)-1-(3-((6-((1H-pyrazol-3-yl)amino)-1-isopropyl-1H-pyrrolo[3,2-c]pyridin-4-yl)oxy)pyrrolidin-1-yl)prop-2-en-1-one] | 100 to 500 nM | ≤ 20 nM |
| C=CC(=O)N1CC[C@H](Oc2nc(Nc3ccn(C)n3)cc3c2ccn3C(C)C)C1 [Example 193, (S)-1-(3-((1-isopropyl-6-((1-methyl-1H-pyrazol-3-yl)amino)-1H-pyrrolo[3,2-c]pyridin-4-yl)oxy)pyrrolidin-1-yl)prop-2-en-1-one] | > 500 nM | > 500 nM |
| C=CC(=O)N1CC[C@H](Oc2nc(Nc3cc(C)[nH]n3)cc3c2ccn3C(C)C)C1 [Example 194, (S)-1-(3-((1-isopropyl-6-((5-methyl-1H-pyrazol-3-yl)amino)-1H-pyrrolo[3,2-c]pyridin-4-yl)oxy)pyrrolidin-1-yl)prop-2-en-1-one] | 20 to 100 nM | ≤ 20 nM |
| C=CC(=O)N1C[C@H](F)[C@H](Oc2nc(Nc3cc[nH]n3)cc3c2ccn3CC(C)C)C1 [Example 195, 1-((3R,4S)-3-((6-((1H-pyrazol-3-yl)amino)-1-isobutyl-1H-pyrrolo[3,2-c]pyridin-4-yl)oxy)-4-fluoropyrrolidin-1-yl)prop-2-en-1-one] | 100 to 500 nM | 20 to 100 nM |
| C=CC(=O)N1C[C@H](F)[C@H](Oc2nc(Nc3cc(C)[nH]n3)cc3c2ccn3CC(C)C)C1 [Example 196, 1-((3S,4R)-3-fluoro-4-((1-isobutyl-6-((5-methyl-1H-pyrazol-3-yl)amino)-1H-pyrrolo[3,2-c]pyridin-4-yl)oxy)pyrrolidin-1-yl)prop-2-en-1-one] | 20 to 100 nM | 20 to 100 nM |
| C=CC(=O)N1C[C@H](F)[C@H](Oc2nc(Nc3ccn(C)n3)cc3c2ccn3CC(C)C)C1 [Example 197, 1-((3S,4R)-3-fluoro-4-((1-isobutyl-6-((1-methyl-1H-pyrazol-3-yl)amino)-1H-pyrrolo[3,2-c]pyridin-4-yl)oxy)pyrrolidin-1-yl)prop-2-en-1-one] | > 500 nM | > 500 nM |
| C=CC(=O)N1CC[C@H](Oc2nc(Nc3cccn(C)c3=O)cc3c2ccn3C(C)C)C1 [Example 198, (S)-3-((4-((1-acryloylpyrrolidin-3-yl)oxy)-1-isopropyl-1H-pyrrolo[3,2-c]pyridin-6-yl)amino)-1-methylpyridin-2(1H)-one] | > 500 nM | > 500 nM |
| C=CC(=O)N1C[C@H](F)[C@H](Oc2nc(Nc3cccn(C)c3=O)cc3c2ccn3CC(C)C)C1 [Example 199, 3-((4-(((3R,4S)-1-acryloyl-4-fluoropyrrolidin-3-yl)oxy)-1-isobutyl-1H-pyrrolo[3,2-c]pyridin-6-yl)amino)-1-methylpyridin-2(1H)-one] | > 500 nM | > 500 nM |
| C=CC(=O)N1CCCC12CC(Oc1nc(Nc3ncc(C)s3)cc3c1ccn3CC(C)C)C2 (stereo not drawn) [Example 200, 1-(2-((1-isobutyl-6-((5-methylthiazol-2-yl)amino)-1H-pyrrolo[3,2-c]pyridin-4-yl)oxy)-5-azaspiro[3.4]octan-5-yl)prop-2-en-1-one] | 100 to 500 nM | 20 to 100 nM |
| C=CC(=O)N1CCCC12CCC(Oc1nc(Nc3ncc(C)s3)cc3c1ccn3CC(C)C)C2 (stereo not drawn) [Example 201, 1-(7-((1-isobutyl-6-((5-methylthiazol-2-yl)amino)-1H-pyrrolo[3,2-c]pyridin-4-yl)oxy)-1-azaspiro[4.4]nonan-1-yl)prop-2-en-1-one] | > 500 nM | 100 to 500 nM |
| C=CC(=O)N1CCC2(CC(Oc3nc(Nc4ncc(C)s4)cc4c3ccn4CC(C)C)C2)C1 (stereo not drawn) [Example 202, 1-(2-((1-isobutyl-6-((5-methylthiazol-2-yl)amino)-1H-pyrrolo[3,2-c]pyridin-4-yl)oxy)-6-azaspiro[3.4]octan-6-yl)prop-2-en-1-one] | 100 to 500 nM | 100 to 500 nM |
| C=CC(=O)N1CCCCC12CC(Oc1nc(Nc3ncc(C)s3)cc3c1ccn3CC(C)C)C2 (stereo not drawn) [Example 203, 1-(2-((1-isobutyl-6-((5-methylthiazol-2-yl)amino)-1H-pyrrolo[3,2-c]pyridin-4-yl)oxy)-5-azaspiro[3.5]nonan-5-yl)prop-2-en-1-one] | > 500 nM | > 500 nM |
| C=CC(=O)N1CCC2(CCC(Oc3nc(Nc4ncc(C)s4)cc4c3ccn4CC(C)C)C2)C1 (stereo not drawn) [Example 204, 1-(7-((1-isobutyl-6-((5-methylthiazol-2-yl)amino)-1H-pyrrolo[3,2-c]pyridin-4-yl)oxy)-2-azaspiro[4.4]nonan-2-yl)prop-2-en-1-one] | > 500 nM | > 500 nM |
